Consider 20 molecules from patent US7109243B2 (IRM LLC, priority 2003, dated 2006).

The target in one assay is Cathepsin S (Homo sapiens, UniProt P25774). Put plainly: Cathepsin S inhibition assay (fluorogenic peptide substrate). Format: biochemical. The settings on record: Table II, compounds of Formula I; read-out: Ki Cat. S. On the procedure:
“Inhibition constant”, Ki, is the dissociation constant of the enzyme-inhibitor complex, or the reciprocal of the binding affinity of the inhibitor to the enzyme. […] The inhibited rates are then fit by nonlinear regression to the following equation: […]
The assumption being made for the classical inhibition described above is that the free inhibitor concentration is equal to the total inhibitor concentration.
Kinetic measurements are performed in a total reaction volume of 30 μl in 384-well microtiter plates. […] The reactions are initiated by adding the substrate, acetyl-histidine-proline-valine-lysine-amino carbamoyl coumarin, to a final concentration of 50 μM. The rate of substrate hydrolysis is measured by monitoring the increase in fluorescence at an excitation wavelength of 380 nm and an emission wavelength of 450 nm that results from cleavage of the aniline bond in the substrate by the enzyme.

In a further assay the target is T1, Cathepsin K (Homo sapiens, UniProt P43235).
T1 sequence (P43235 115-329): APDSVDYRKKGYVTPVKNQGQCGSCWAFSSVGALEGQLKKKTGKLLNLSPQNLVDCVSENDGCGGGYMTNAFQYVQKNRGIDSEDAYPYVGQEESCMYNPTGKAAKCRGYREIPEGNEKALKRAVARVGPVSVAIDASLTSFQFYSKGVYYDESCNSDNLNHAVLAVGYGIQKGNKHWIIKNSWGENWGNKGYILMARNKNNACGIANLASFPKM
Put plainly: Cathepsin K inhibition assay (fluorogenic peptide substrate); selectivity ratio vs cathepsin S. Format: biochemical. The note with it: ratio of cathepsin K inhibition constant to cathepsin S inhibition constant; Table II. On the procedure: The optimal substrate for cathepsin K, acetyl-lysine-histidine-proline-lysine-amino carbamoyl coumarin, was identified from screening a combinatorial library of fluorogenic peptide substrates (Harris, J. L., B. J. Backes, et al., Proc Natl Acad Sci USA 2000, 97(14), 7754-9). Kinetic measurements are performed in a total reaction volume of 30 μl in 384-well microtiter plates. […] The reactions are initiated by adding the substrate, acetyl-lysine-histidine-proline-lysine-amino carbamoyl coumarin, to a final concentration of 40 μM. The rate of substrate hydrolysis is measured by monitoring the increase in fluorescence at an excitation wavelength of 380 nm and an emission wavelength of 450 nm that results from cleavage of the aniline bond in the substrate by the enzyme. The apparent inhibition constants for the compounds are determined from the enzyme progress curves ([…]. Elrod, et al., Anal Biochem 2000, 286(1), 45-50) and are then used to calculate the inhibition constants for competitive inhibitors. Selectivity for cathepsin S in the presence of cathepsin isozymes was determined by the ratio of the cathepsin isozyme inhibition constant of a compound of the present invention to the cathepsin S inhibition constant of the same compound.

Sequence of Cathepsin S (P25774 115-331, species assumed): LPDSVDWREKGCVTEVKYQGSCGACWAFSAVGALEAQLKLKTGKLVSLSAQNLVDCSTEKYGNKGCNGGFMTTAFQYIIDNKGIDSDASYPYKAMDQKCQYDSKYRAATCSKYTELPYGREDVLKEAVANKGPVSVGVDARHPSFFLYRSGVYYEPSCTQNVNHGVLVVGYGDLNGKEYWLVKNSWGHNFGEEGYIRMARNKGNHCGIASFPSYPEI

The Ki is the dissociation constant of the complex between target and ligand, obtained from inhibition or displacement. In the case of `O=C(N[C@@H](CC1CCCCC1)C(=O)NCCNc1ccc(OC(F)(F)F)cc1)c1cccc(-c2ccccc2Cl)c1` [Compound 34, 2′-Chloro-biphenyl-3-carboxylic acid (S)-{2-cyclohexyl-1-[2-(4-trifluoromethoxy-phenylamino)-ethylcarbamoyl]-ethyl}-amide], the inhibition constant (Ki) on Cathepsin S is below 100 nM. The “Selectivity for Cat. S over Cat. K” value on Cathepsin K is recorded as “+++ (+++, >1000)”.
Turning to `O=C(N[C@@H](CC1CCCCC1)C(=O)NCCNc1ccc(OC(F)(F)F)cc1)c1ccc(-c2ccccc2C(F)(F)F)s1` [Compound 35, 5-(2-Trifluoromethyl-phenyl)-thiophene-2-carboxylic acid (S)-{2-cyclohexyl-1-[2-(4-trifluoromethoxy-phenylamino)-ethylcarbamoyl]-ethyl}-amide], the Ki on Cathepsin S was below 100 nM. Further, on Cathepsin K, the “Selectivity for Cat. S over Cat. K” value is reported as “+ (+, >10)”.
In the case of `O=C(N[C@@H](CC1CCCCC1)C(=O)NCCNc1ccc(OC(F)(F)F)cc1)c1ccc(-c2cccc(F)c2)s1` [Compound 36, 5-(3-Fluoro-phenyl)-thiophene-2-carboxylic acid (S)-{2-cyclohexyl-1-[2-(4-trifluoromethoxy-phenylamino)-ethylcarbamoyl]-ethyl}-amide], the Ki at Cathepsin S is below 100 nM. In addition, the “Selectivity for Cat. S over Cat. K” value at Cathepsin K is on record as “++ (++, >100)”.
`O=C(N[C@@H](CC1CCCCC1)C(=O)NCCNc1ccc(OC(F)(F)F)cc1)c1ccsc1` [Compound 37, Thiophene-3-carboxylic acid (S)-{2-cyclohexyl-1-[2-(4-trifluoromethoxy-phenylamino)-ethylcarbamoyl]-ethyl}-amide]: the Ki at Cathepsin S was below 100 nM. In addition, the “Selectivity for Cat. S over Cat. K” value at Cathepsin K is given as “++ (++, >100)”.
For `O=C(N[C@@H](CC1CCCCC1)C(=O)NCCNc1ccc(OC(F)(F)F)cc1)C1CC(=O)N(Cc2cccs2)C1` (stereo partly drawn) [Compound 38, 5-Oxo-1-thiophen-2-ylmethyl-pyrrolidine-3-carboxylic acid (S)-{2-cyclohexyl-1-[2-(4-trifluoromethoxy-phenylamino)-ethylcarbamoyl]-ethyl}-amide], the Ki on Cathepsin S is below 100 nM. Besides, at Cathepsin K, the “Selectivity for Cat. S over Cat. K” value was “++ (++, >100)”.
For the molecule `O=C(N[C@@H](CC1CCCCC1)C(=O)NCCNc1ccc(OC(F)(F)F)cc1)C1CC(=O)N(Cc2ccco2)C1` (stereo partly drawn) [Compound 39, 1-Furan-2-ylmethyl-5-oxo-pyrrolidine-3-carboxylic acid (S)-{2-cyclohexyl-1-[2-(4-trifluoromethoxy-phenylamino)-ethylcarbamoyl]-ethyl}-amide], the Ki at Cathepsin S was below 1000 nM. On Cathepsin K, the “Selectivity for Cat. S over Cat. K” value is reported as “++ (++, >100)”.
With `Cc1oc(S(=O)(=O)N2CCCC2)cc1C(=O)N[C@@H](CC1CCCCC1)C(=O)NCCNc1ccc(OC(F)(F)F)cc1` [Compound 40, 2-Methyl-5-(pyrrolidine-1-sulfonyl)-furan-3-carboxylic acid (S)-{2-cyclohexyl-1-[2-(4-trifluoromethoxy-phenylamino)-ethylcarbamoyl]-ethyl}-amide], the Ki at Cathepsin S was below 1000 nM. For the same molecule, the “Selectivity for Cat. S over Cat. K” value at Cathepsin K was “+ (+, >10)”.
`COc1ccc(NCCNC(=O)[C@H](Cc2ccccc2)NC(=O)c2cnn(-c3ccccc3)c2C(F)(F)F)cc1` [Compound 41, (S)-1-Phenyl-5-trifluoromethyl-1H-pyrazole-4-carboxylic acid {1-[2-(4-methoxy-phenylamino)-ethylcarbamoyl]-2-phenyl-ethyl}-amide]: the Ki at Cathepsin S is below 1000 nM. In addition, the “Selectivity for Cat. S over Cat. K” value at Cathepsin K was “++ (++, >100)”.
For `Cc1ccc(-c2ccc(C(=O)N[C@@H](CC3CCCCC3)C(=O)NCCNc3ccc(OC(F)(F)F)cc3)s2)cc1` [Compound 42, 5-p-Tolyl-thiophene-2-carboxylic acid (S)-{2-cyclohexyl-1-[2-(4-trifluoromethoxy-phenylamino)-ethylcarbamoyl]-ethyl}-amide], the Ki on Cathepsin S is below 1000 nM. Further, the “Selectivity for Cat. S over Cat. K” value at Cathepsin K is on record as “+ (+, >10)”.
`O=C(N[C@@H](CC1CCCCC1)C(=O)NCCNc1ccc(OC(F)(F)F)cc1)c1ccc(Cn2cnc3ccccc32)cc1` [Compound 43, 4-Benzoimidazol-1-ylmethyl-N-{2-cyclohexyl-1-(S)-[2-(4-trifluoromethoxy-phenylamino)-ethylcarbamoyl]-ethyl}-benzamide]: the Ki at Cathepsin S is below 100 nM. In addition, the “Selectivity for Cat. S over Cat. K” value on Cathepsin K was “+ (+, >10)”.
Turning to `COc1ccc(NCCNC(=O)[C@H](Cc2ccccc2)NC(=O)c2cnn(-c3ccc(Cl)cc3)c2C(F)(F)F)cc1` [Compound 44, (S)-1-(4-Chloro-phenyl)-5-trifluoromethyl-1H-pyrazole-4-carboxylic acid {1-[2-(4-methoxy-phenylamino)-ethylcarbamoyl]-2-phenyl-ethyl}-amide], the Ki on Cathepsin S is below 1000 nM. At Cathepsin K, the “Selectivity for Cat. S over Cat. K” value was “++ (++, >100)”.
With `COc1ccc(NCCNC(=O)[C@H](Cc2ccc(Oc3ccc(C)cc3)cc2)NC(=O)c2cccc(C)c2)cc1` [Compound 45, (S)-N-[1-[2-(4-Methoxy-phenylamino)-ethylcarbamoyl]-2-(4-p-tolyloxy-phenyl)-ethyl]-3-methyl-benzamide], the Ki on Cathepsin S was below 100 nM. At Cathepsin K, the “Selectivity for Cat. S over Cat. K” value is listed as “+++ (+++, >1000)”.
Take `O=C(Cn1cnnn1)N[C@@H](CC1CCCCC1)C(=O)NCCNc1ccc(OC(F)(F)F)cc1` [Compound 46, 3-Cyclohexyl-2-(S)-(2-tetrazol-1-yl-acetylamino)-N-[2-(4-trifluoromethoxy-phenylamino)-ethyl]-propionamide]: on Cathepsin S, the Ki was below 1000 nM. For the same molecule, the “Selectivity for Cat. S over Cat. K” value at Cathepsin K was “++ (++, >100)”.
Turning to `Cc1cccc(-c2ccc(C(=O)N[C@@H](CC3CCCCC3)C(=O)NCCNc3ccc(OC(F)(F)F)cc3)s2)c1` [Compound 47, 5-m-Tolyl-thiophene-2-carboxylic acid (S)-{2-cyclohexyl-1-[2-(4-trifluoromethoxy-phenylamino)-ethylcarbamoyl]-ethyl}-amide], on Cathepsin S, the Ki was below 100 nM. The “Selectivity for Cat. S over Cat. K” value on Cathepsin K was “+++ (+++, >1000)”.
Turning to `Cc1cc2ncc(C(=O)N[C@@H](CC3CCCCC3)C(=O)NCCNc3ccc(OC(F)(F)F)cc3)c(C)n2n1` [Compound 48, 2,7-Dimethyl-pyrazolo[1,5-a]pyrimidine-6-carboxylic acid (S)-{2-cyclohexyl-1-[2-(4-trifluoromethoxy-phenylamino)-ethylcarbamoyl]-ethyl}-amide], the Ki on Cathepsin S was below 1000 nM. Besides, the “Selectivity for Cat. S over Cat. K” value at Cathepsin K was “++ (++, >100)”.
For the molecule `Cc1oc(S(=O)(=O)N2CCOCC2)cc1C(=O)N[C@@H](CC1CCCCC1)C(=O)NCCNc1ccc(OC(F)(F)F)cc1` [Compound 49, 2-Methyl-5-(morpholine-4-sulfonyl)-furan-3carboxylic acid (S)-{2-cyclohexyl-1-[2-(4-trifluoromethoxy-phenylamino)-ethylcarbamoyl]-ethyl}-amide], the Ki at Cathepsin S was below 100 nM. Further, the “Selectivity for Cat. S over Cat. K” value on Cathepsin K was “++ (++, >100)”.
Turning to `O=C(N[C@@H](CC1CCCCC1)C(=O)NCCNc1ccc(OC(F)(F)F)cc1)c1ccc(-c2cccc(C(F)(F)F)c2)s1` [Compound 50, 5-(3-Trifluoromethyl-phenyl)-thiophene-2-carboxylic acid (S)-{2-cyclohexyl-1-[2-(4-trifluoromethoxy-phenylamino)-ethylcarbamoyl]-ethyl}-amide], the Ki at Cathepsin S was below 100 nM. In addition, on Cathepsin K, the “Selectivity for Cat. S over Cat. K” value is given as “+++ (+++, >1000)”.
For `Cc1cccc(-c2ccc(C(=O)N[C@@H](CC3CCCCC3)C(=O)NCCNc3ccc(OC(F)(F)F)cc3)o2)c1` [Compound 51, 5-m-Tolyl-furan-2-carboxylic acid (S)-{2-cyclohexyl-1-[2-(4-trifluoromethoxy-phenylamino)-ethylcarbamoyl]-ethyl}-amide], the Ki on Cathepsin S is below 100 nM. Also, the “Selectivity for Cat. S over Cat. K” value at Cathepsin K was “+++ (+++, >1000)”.
For `COc1ccc(NCCNC(=O)[C@H](Cc2ccccc2)NC(=O)c2cccc3c2OCC3)cc1` [Compound 52, (S)-2,3-Dihydro-benzofuran-7-carboxylic acid {1-[2-(4-methoxy-phenylamino)-ethylcarbamoyl]-2-phenyl-ethyl}-amide], the Ki at Cathepsin S was below 10000 nM. Further, the “Selectivity for Cat. S over Cat. K” value on Cathepsin K is “+ (+, >10)”.
Consider `CS(=O)(=O)c1ccc(C(=O)N[C@@H](CC2CCCCC2)C(=O)NCCNc2ccc(OC(F)(F)F)cc2)s1` [Compound 53, 5-Methanesulfonyl-thiophene-2-carboxylic acid (S)-{2-cyclohexyl-1-[2-(4-trifluoromethoxy-phenylamino)-ethylcarbamoyl]-ethyl}-amide], for which, at Cathepsin S, the Ki was below 100 nM. For the same molecule, the “Selectivity for Cat. S over Cat. K” value at Cathepsin K is “+++ (+++, >1000)”.
